# In PMC13351981, “A multiscale screening platform for rapid GPCR variant profiling reveals color-tuned JSR1 mutants” (Biophysical Journal, 2025):
# Legend:
# Assay in all cases: UV/Vis absorption by HPLC-SEC diode array after reconstitution and purification
# Type in all cases: binding
# Details in all cases: 50 uM 9-cis retinal reconstitution; covalent (Schiff base to K321); pH 6.5, 20 C, LMNG/CHS
# [1] = target: T1, Jumping Spider Rhodopsin 1 (JSR1) (Hasarius adansoni, UniProt B1B1U5, S199V)
# T1 construct: gene HaRh1; JSR1 WT + C-terminal 3C site, Twin-Strep, TEV, eGFP, His8; Hi5 insect cells (baculovirus); tags removed by HRV 3C; monomer in LMNG/CHS
# T1 sequence (B1B1U5 entry or part of it S199V): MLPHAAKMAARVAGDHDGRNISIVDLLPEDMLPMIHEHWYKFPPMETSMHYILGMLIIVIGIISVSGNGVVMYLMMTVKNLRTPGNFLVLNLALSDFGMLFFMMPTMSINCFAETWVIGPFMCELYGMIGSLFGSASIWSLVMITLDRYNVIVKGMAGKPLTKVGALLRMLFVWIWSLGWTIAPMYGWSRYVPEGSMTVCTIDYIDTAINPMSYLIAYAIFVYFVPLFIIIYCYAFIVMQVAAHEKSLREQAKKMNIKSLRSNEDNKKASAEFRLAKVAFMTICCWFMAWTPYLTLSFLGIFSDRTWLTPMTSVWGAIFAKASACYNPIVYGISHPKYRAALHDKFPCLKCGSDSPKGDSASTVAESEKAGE
# [2] = target: T2, Jumping Spider Rhodopsin 1 (JSR1) (Hasarius adansoni, UniProt B1B1U5, S199I)
# T2 construct: gene HaRh1; JSR1 WT + C-terminal 3C site, Twin-Strep, TEV, eGFP, His8; Hi5 insect cells (baculovirus); tags removed by HRV 3C; monomer in LMNG/CHS
# T2 sequence (B1B1U5 entry or part of it S199I): as the sequence (B1B1U5 entry or part of it S199V) above, with V199I counted along it
# [3] = target: T3, Jumping Spider Rhodopsin 1 (JSR1) (Hasarius adansoni, UniProt B1B1U5, S199H)
# T3 construct: gene HaRh1; JSR1 WT + C-terminal 3C site, Twin-Strep, TEV, eGFP, His8; Hi5 insect cells (baculovirus); tags removed by HRV 3C; monomer in LMNG/CHS
# T3 sequence (B1B1U5 entry or part of it S199H): as the sequence (B1B1U5 entry or part of it S199V) above, with V199H counted along it
# [4] = target: T4, Jumping Spider Rhodopsin 1 (JSR1) (Hasarius adansoni, UniProt B1B1U5, S199F)
# T4 construct: gene HaRh1; JSR1 WT + C-terminal 3C site, Twin-Strep, TEV, eGFP, His8; Hi5 insect cells (baculovirus); tags removed by HRV 3C; monomer in LMNG/CHS
# T4 sequence (B1B1U5 entry or part of it S199F): as the sequence (B1B1U5 entry or part of it S199V) above, with V199F counted along it
# [5] = target: T5, Jumping Spider Rhodopsin 1 (JSR1) (Hasarius adansoni, UniProt B1B1U5, S199L)
# T5 construct: gene HaRh1; JSR1 WT + C-terminal 3C site, Twin-Strep, TEV, eGFP, His8; Hi5 insect cells (baculovirus); tags removed by HRV 3C; monomer in LMNG/CHS
# T5 sequence (B1B1U5 entry or part of it S199L): as the sequence (B1B1U5 entry or part of it S199V) above, with V199L counted along it
# [6] = target: T6, Jumping Spider Rhodopsin 1 (JSR1) (Hasarius adansoni, UniProt B1B1U5, S199Y)
# T6 construct: gene HaRh1; JSR1 WT + C-terminal 3C site, Twin-Strep, TEV, eGFP, His8; Hi5 insect cells (baculovirus); tags removed by HRV 3C; monomer in LMNG/CHS
# T6 sequence (B1B1U5 entry or part of it S199Y): as the sequence (B1B1U5 entry or part of it S199V) above, with V199Y counted along it
# [7] = target: T7, Jumping Spider Rhodopsin 1 (JSR1) (Hasarius adansoni, UniProt B1B1U5)
# T7 construct: gene HaRh1; JSR1 WT + C-terminal 3C site, Twin-Strep, TEV, eGFP, His8; Hi5 insect cells (baculovirus); tags removed by HRV 3C; monomer in LMNG/CHS
# T7 sequence (B1B1U5 entry or part of it): as the sequence (B1B1U5 entry or part of it S199V) above, with V199S counted along it
structure (smiles),measurement,setting,value
CC1=C(/C=C/C(C)=C\C=C\C(C)=C\C=O)C(C)(C)CCC1 [9-cis retinal],UV/Vis absorption by HPLC-SEC diode array after reconstitution and purification,[1],These mutations cause a full deprotonation in the 9-cis retinal-bound ground state
same,UV/Vis absorption by HPLC-SEC diode array after reconstitution and purification,[2],These mutations cause a full deprotonation in the 9-cis retinal-bound ground state
same,UV/Vis absorption by HPLC-SEC diode array after reconstitution and purification,[3],These mutations cause a full deprotonation in the 9-cis retinal-bound ground state
same,UV/Vis absorption by HPLC-SEC diode array after reconstitution and purification,[4],These mutations cause a full deprotonation in the 9-cis retinal-bound ground state
same,UV/Vis absorption by HPLC-SEC diode array after reconstitution and purification,[5],These mutations cause a full deprotonation in the 9-cis retinal-bound ground state
same,UV/Vis absorption by HPLC-SEC diode array after reconstitution and purification,[6],These mutations cause a full deprotonation in the 9-cis retinal-bound ground state
same,UV/Vis absorption by HPLC-SEC diode array after reconstitution and purification,[7],We observed that all mutants incorporated 9-cis retinal successfully|established workflow with 9-cis retinal-reconstituted JSR1
